In patent publication US20230295157A1, “3-(1H-IMIDAZOL-2-YL)-2,3,8,8A-TETRAHYDROINDOLIZIN-5(1H)-ONE DERIVATIVES USEFUL AS FACTOR XIA INHIBITORS” (JANSSEN PHARMACEUTICA NV, priority 2020, published 2023):
Read-outs that look alike come from different tables or passages of the source.

What was measured:
human plasma kallikrein = human plasma kallikrein (Homo sapiens (Human), UniProt P03952); test: Kallikrein inhibition assay (FLINT) utilizing a quenched AMC peptide substrate; type: biochemical; details: 30 min preincubation, read-out: Kallikrein Kin Inh IC50
Chain of human plasma kallikrein (P03952 391-638): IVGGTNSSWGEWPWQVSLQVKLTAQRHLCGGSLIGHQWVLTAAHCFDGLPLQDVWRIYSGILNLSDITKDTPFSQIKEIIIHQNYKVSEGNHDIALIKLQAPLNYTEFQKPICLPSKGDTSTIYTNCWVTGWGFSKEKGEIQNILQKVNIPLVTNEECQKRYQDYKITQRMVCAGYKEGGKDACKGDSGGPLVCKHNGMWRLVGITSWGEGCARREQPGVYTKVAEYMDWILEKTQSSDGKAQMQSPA
Chain of human plasma kallikrein (P03952 20-390 partner): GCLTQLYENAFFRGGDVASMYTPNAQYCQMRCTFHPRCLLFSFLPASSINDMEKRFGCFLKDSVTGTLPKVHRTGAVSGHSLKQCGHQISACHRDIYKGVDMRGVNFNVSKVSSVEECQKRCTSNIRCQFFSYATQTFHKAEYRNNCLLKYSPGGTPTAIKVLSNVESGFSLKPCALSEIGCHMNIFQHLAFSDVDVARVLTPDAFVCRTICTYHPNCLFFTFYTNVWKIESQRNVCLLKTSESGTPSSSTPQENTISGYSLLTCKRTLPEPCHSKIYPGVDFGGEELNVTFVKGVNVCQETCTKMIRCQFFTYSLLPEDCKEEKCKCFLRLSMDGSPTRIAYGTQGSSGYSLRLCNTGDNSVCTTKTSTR
Method in brief: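 Fluorogenic Z-Gly-Pro-Arg-AMC cleavage (50 μM substrate, 2 nM kallikrein, Tris pH 7.5, CaCl2, BSA, CHAPS, 2% DMSO) read kinetically at 340/440 nm for 30 min after 30-min compound pre-incubation. Compounds in 11-point 3-fold series from 1 μM; percent inhibition fitted to four-parameter equation for IC50.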

Factor XIa = Factor XIa (Homo sapiens (Human), UniProt P03951); test: Factor XIa inhibition assay (FLINT) utilizing a fluorophore-quencher pair peptide substrate; type: biochemical; details: 30 min preincubation, kinetic reads over 30 min, read-out: FXIa Kin Inh IC50
Chain of Factor XIa (P03951 388-625): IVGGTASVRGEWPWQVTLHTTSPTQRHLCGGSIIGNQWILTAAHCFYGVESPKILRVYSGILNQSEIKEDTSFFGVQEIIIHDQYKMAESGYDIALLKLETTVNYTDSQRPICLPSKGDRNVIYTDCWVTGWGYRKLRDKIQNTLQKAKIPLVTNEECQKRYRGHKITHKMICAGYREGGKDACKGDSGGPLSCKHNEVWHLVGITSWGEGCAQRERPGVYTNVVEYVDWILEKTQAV
Chain of Factor XIa (P03951 19-387 partner): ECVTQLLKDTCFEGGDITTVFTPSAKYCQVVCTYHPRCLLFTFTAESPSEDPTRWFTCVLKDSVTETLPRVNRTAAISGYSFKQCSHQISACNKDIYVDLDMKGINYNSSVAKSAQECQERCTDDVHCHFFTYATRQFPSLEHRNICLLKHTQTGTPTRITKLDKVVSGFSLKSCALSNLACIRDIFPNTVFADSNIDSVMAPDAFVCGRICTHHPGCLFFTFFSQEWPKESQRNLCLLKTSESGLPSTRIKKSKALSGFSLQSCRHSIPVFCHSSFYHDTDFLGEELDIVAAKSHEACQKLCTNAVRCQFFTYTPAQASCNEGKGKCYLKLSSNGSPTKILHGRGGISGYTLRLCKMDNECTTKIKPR
Method in brief: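 FXIa ([…]) preincubated 30 min with compound (11-point 3-fold dilution, top 100 nM, 2% DMSO), then 15 μM quenched FXI Arg146-based peptide added; Tris pH 7.5, CaCl2, BSA, CHAPS. Fluorescence 485/520 nm read kinetically every 5 min over 30 min at RT; IC50 by 4-parameter fit.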

[1] = kinetic reads over 30 min, Z-Gly-Pro-Arg-AMC substrate 50 μM
[2] = 5Fam-KLTRAETV-K5Tamra substrate 15 μM
[3] = 5Fam-[…]-K5Tamra substrate 15 μM

IC50 (human plasma kallikrein; [1])	IC50 (Factor XIa; [2])	IC50 (Factor XIa; [3])	IC50 (human plasma kallikrein; μM, kinetic reads)	SMILES
0.0275 µM	3.7 nM	–	–	Nc1cc(-c2cnc([C@@H]3CC[C@@H]4CC(c5c(-n6cnnn6)ccc(Cl)c5F)=CC(=O)N43)[nH]2)c(Cl)cn1 [Example 15, (3S,8aR)-3-[5-(2-Amino-5-chloro-4-pyridyl)-1H-imidazol-2-yl]-7-[3-chloro-2-fluoro-6-(tetrazol-1-yl)phenyl]-2,3,8,8a-tetrahydro-1H-indolizin-5-one]
0.0057 µM	–	0.4 nM	–	[2H]c1nc(C2CCC3CC(c4c(-n5cnnn5)ccc(Cl)c4F)=CC(=O)N32)[nH]c1-c1ccc(N)nc1F (stereo in doubt) [Example 154, (3S,8aR)-3-[5-(6-amino-2-fluoro-3-pyridyl)-4-deuterio-1H-imidazol-2-yl]-7-[3-chloro-2-fluoro-6-(tetrazol-1-yl)phenyl]-2,3,8,8a-tetrahydro-1H-indolizin-5-one]
–	> 200 nM	–	1.1 µM	CN(C)C(=O)c1ccccc1-c1c[nH]c([C@@H]2CCC3CC(c4c(-n5cnnn5)ccc(Cl)c4F)=CC(=O)N32)n1 (stereo partly drawn) [Example 288, 2-(2-((3S)-7-(3-Chloro-2-fluoro-6-(1H-tetrazol-1-yl)phenyl)-5-oxo-1,2,3,5,8,8a-hexahydroindolizin-3-yl)-1H-imidazol-4-yl)-N,N-dimethylbenzamide]
0.0029 µM	1.5 nM	–	–	O=C1C=C(c2c(-n3cnnn3)ccc(Cl)c2F)C[C@H]2CC[C@@H](c3nc(-c4ccnc5[nH]ccc45)c[nH]3)N12 [Example 32, (3S,8aR)-3-(4-(1H-pyrrolo[2,3-b]pyridin-4-yl)-1H-imidazol-2-yl)-7-(3-chloro-2-fluoro-6-(1H-tetrazol-1-yl)phenyl)-2,3,8,8a-tetrahydroindolizin-5(1H)-one]
0.0006 µM	0.2 nM	–	–	Nc1n[nH]c2cc(-c3cnc([C@@H]4CCC5CC(c6c(-n7cnnn7)ccc(Cl)c6F)=CC(=O)N54)[nH]3)ccc12 (stereo partly drawn) [Example 313, (3S)-3-(5-(3-Amino-1H-indazol-6-yl)-1H-imidazol-2-yl)-7-(3-chloro-2-fluoro-6-(1H-tetrazol-1-yl)phenyl)-2,3,8,8a-tetrahydroindolizin-5(1H)-one]
0.0026 µM	–	0.3 nM	–	Nc1nccc(-c2[nH]c([C@@H]3CC[C@@H]4CC(c5cc(Cl)ccc5-n5cnnn5)=CC(=O)N43)nc2F)c1F (single isomer, unassigned) [Example 70, (3S*,8aR)-3-(5-(2-amino-3-fluoropyridin-4-yl)-4-fluoro-1H-imidazol-2-yl)-7-(5-chloro-2-(1H-tetrazol-1-yl)phenyl)-2,3,8,8a-tetrahydroindolizin-5(1H)-one]
0.004 µM	2.1 nM	–	–	O=C1C=C(c2c(-n3cnnn3)ccc(Cl)c2F)C[C@H]2CC[C@@H](c3nc(-c4ccc5[nH]ncc5c4)c[nH]3)N12 [Example 43, (3S,8aR)-3-(4-(1H-indazol-5-yl)-1H-imidazol-2-yl)-7-(3-chloro-2-fluoro-6-(1H-tetrazol-1-yl)phenyl)-2,3,8,8a-tetrahydroindolizin-5(1H)-one]
0.009 µM	–	1.2 nM	–	CNc1ccc(-c2cnc([C@@H]3CC[C@@H]4CC(c5c(-n6cnnn6)ccc(Cl)c5F)=CC(=O)N43)[nH]2)c(F)n1 (relative stereo) [Example 282, (3S,8aR)-7-(3-Chloro-2-fluoro-6-(1H-tetrazol-1-yl)phenyl)-3-(5-(2-fluoro-6-(methylamino)pyridin-3-yl)-1H-imidazol-2-yl)-2,3,8,8a-tetrahydroindolizin-5(1H)-one]
0.0074 µM	0.5 nM	–	–	CNc1ccc(-c2cnc([C@@H]3CC[C@H]4CC(c5c(-n6cnnn6)ccc(Cl)c5F)=CC(=O)N43)[nH]2)c(F)n1 [Example 291, (3S,8aS)-7-(3-Chloro-2-fluoro-6-(1H-tetrazol-1-yl)phenyl)-3-(5-(2-fluoro-6-(methylamino)pyridin-3-yl)-1H-imidazol-2-yl)-2,3,8,8a-tetrahydroindolizin-5(1H)-one]
0.0136 µM	17.1 nM	–	–	Cc1cc2c(-c3cnc([C@@H]4CCC5CC(c6c(-n7cnnn7)ccc(Cl)c6F)=CC(=O)N54)[nH]3)c[nH]c2cn1 (stereo partly drawn) [Example 381, (3S)-7-(3-chloro-2-fluoro-6-(1H-tetrazol-1-yl)phenyl)-3-(5-(5-methyl-1H-pyrrolo[2,3-c]pyridin-3-yl)-1H-imidazol-2-yl)-2,3,8,8a-tetrahydroindolizin-5(1H)-one]
0.371 µM	31 nM	–	–	Nc1ccc(-c2cnc([C@@H]3CC[C@@H]4CC(c5c(-n6cnnn6)ccc(Cl)c5F)=CC(=O)N43)[nH]2)c(C(F)(F)F)n1 [Example 167, (3S,8aR)-3-(5-(6-amino-2-(trifluoromethyl)pyridin-3-yl)-1H-imidazol-2-yl)-7-(3-chloro-2-fluoro-6-(1H-tetrazol-1-yl)phenyl)-2,3,8,8a-tetrahydroindolizin-5(1H)-one]
0.0187 µM	10.8 nM	–	–	O=C(Nc1cnc(C(F)(F)F)cc1-c1cnc([C@@H]2CC[C@H]3CC(c4c(-n5cnnn5)ccc(Cl)c4F)=CC(=O)N32)[nH]1)C1CC1 [Example 242, N-[4 [2-[(3S,8aS)-7-[3-Chloro-2-fluoro-6-(tetrazol-1-yl)phenyl]-5-oxo-2,3,8,8a-tetrahydro-1H-indolizin-3-yl]-1H-imidazol-5-yl]-6-(trifluoromethyl)-3-pyridyl]cyclopropanecarboxamide]
0.323 µM	–	> 100 nM	–	Cn1cc(-c2ccccc2NC(=O)C2CC2)nc1[C@@H]1CC[C@H]2CC(c3c(-n4cnnn4)ccc(Cl)c3F)=CC(=O)N21 (relative stereo) [Example 304, N-(2-(2-((3S,8aS*)-7-(3-Chloro-2-fluoro-6-(1H-tetrazol-1-yl)phenyl)-5-oxo-1,2,3,5,8,8a-hexahydroindolizin-3-yl)-1-methyl-1H-imidazol-4-yl)phenyl)cyclopropanecarboxamide]
–	347 nM	–	2.4 µM	O=C1C=C(c2c(-n3cnnn3)ccc(Cl)c2F)CC2CC[C@@H](c3nc(-c4nc[nH]n4)c[nH]3)N12 (stereo partly drawn) [Example 331, (3S)-3-(4-(1H-1,2,4-Triazol-3-yl)-1H-imidazol-2-yl)-7-(3-chloro-2-fluoro-6-(1H-tetrazol-1-yl)phenyl)-2,3,8,8a-tetrahydroindolizin-5(1H)-one]
0.0061 µM	3.6 nM	–	–	O=C1C=C(c2c(-n3cnnn3)ccc(Cl)c2F)C[C@@H]2CC[C@@H](c3nc(Cl)c(-c4ccnc([C@H](O)C(F)(F)F)c4)[nH]3)N12 (single isomer, unassigned) [Example 172, (3*S,8a*S)-7-(3-chloro-2-fluoro-6-(1H-tetrazol-1-yl)phenyl)-3-(4-chloro-5-(2-((*S)-2,2,2-trifluoro-1-hydroxyethyl)pyridin-4-yl)-1H-imidazol-2-yl)-2,3,8,8a-tetrahydroindolizin-5(1H)-one]
0.0019 µM	1.5 nM	–	–	O=C1C=C(c2c(-n3cnnn3)ccc(Cl)c2F)C[C@H]2CC[C@@H](c3nc(-c4ccnc(-c5ccn[nH]5)c4F)c[nH]3)N12 (single isomer, unassigned) [Example 115, (3S,8a*R)-7-(3-chloro-2-fluoro-6-(1H-tetrazol-1-yl)phenyl)-3-(4-(3-fluoro-2-(1H-pyrazol-5-yl)pyridin-4-yl)-1H-imidazol-2-yl)-2,3,8,8a-tetrahydroindolizin-5(1H)-one]
0.0019 µM	1.5 nM	–	–	O=C1C=C(c2c(-n3cnnn3)ccc(Cl)c2F)C[C@H]2CC[C@@H](c3nc(F)c(-c4ccnc(-n5cccn5)c4)[nH]3)N12 [Example 88, (3S,8aR)-7-[3-chloro-2-fluoro-6-(tetrazol-1-yl)phenyl]-3-[4 fluoro-5-(2-pyrazol-1-yl-4-pyridyl)-1H-imidazol-2-yl]-2,3,8,8a-tetrahydro-1H-indolizin-5-one]
0.0022 µM	0.6 nM	–	–	O=C1C=C(c2c(-n3cnnn3)ccc(Cl)c2F)C[C@H]2CC[C@@H](c3ncc(-c4c[nH]c5ncncc45)[nH]3)N12 [Example 379, (3S,8aR)-3-(5-(7H-pyrrolo[2,3-d]pyrimidin-5-yl)-1H-imidazol-2-yl)-7-(3-chloro-2-fluoro-6-(1H-tetrazol-1-yl)phenyl)-2,3,8,8a-tetrahydroindolizin-5(1H)-one]
0.0245 µM	29.1 nM	–	–	NC(=O)c1cc(-c2cnc([C@@H]3CC[C@@H]4CC(c5c(-n6cc(C(F)(F)F)nn6)ccc(Cl)c5F)=CC(=O)N43)[nH]2)ccn1 [Example 204, 4-(2-((3S,8aR)-7-(3-Chloro-2-fluoro-6-(4-(trifluoromethyl)-1H-1,2,3-triazol-1-yl)phenyl)-5-oxo-1,2,3,5,8,8a-hexahydroindolizin-3-yl)-1H-imidazol-5-yl)picolinamide]
0.0082 µM	1.3 nM	–	–	C[C@H]1C[C@@H](c2ncc(-c3ccc(N)nc3F)[nH]2)N2C(=O)C=C(c3c(-n4cnnn4)ccc(Cl)c3F)C[C@@H]12 (single isomer, unassigned) [Example 346, (1*S,3S,8a*S)-3-(5-(6-Amino-2-fluoropyridin-3-yl)-1H-imidazol-2-yl)-7-(3-chloro-2-fluoro-6-(1H-tetrazol-1-yl)phenyl)-1-methyl-2,3,8,8a-tetrahydroindolizin-5(1H)-one]
0.058 µM	30 nM	–	–	Nc1ccnn1-c1nccc(-c2c[nH]c([C@@H]3CC[C@@H]4CC(c5c(-n6cnnn6)ccc(Cl)c5F)=CC(=O)N43)n2)c1F [Example 68]
